Literature values in EP1358311B1, “CLEANING COMPOSITIONS” (Unilever N.V., priority 2001, dated 2002).

Settings: for Water Solubility (g/100g): at 20°C, other common materials, listed by contrast

Compound | Water Solubility (g/100g) | Water Solubility (grams/100 grams water) (saturated solution in 100 grams of deionised water at 20°C, highly water-soluble materials)
O=BO[O-].[Na+] [Sodium perborate anhydrous] | 3.7 | –
O=P(O)(O)OP(=O)(O)OP(=O)(O)O [Sodium tripolyphosphate anhydrous] | 15 | –
NC(N)=O [Urea] | – | >100
